Biological target: MDM2 (Homo sapiens, UniProt Q00987)
Test: MDM2 binding screen of Libraries 3 and 4: displacement of fluorescent probe F-M8 at 750 nM macrocycle
Details: Panel b, Library 3: 63 scaffolds combinatorially acylated with 15 carboxylic acids at 30 picomole scale; displacement of fluorescent peptide probe; macrocycle 750 nM
Outline: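 Cyclic peptide scaffolds were acylated in DMSO with carboxylic acids (20 equiv.), HBTU and DABCO for 6 h at room temperature. Reactions were quenched overnight in 100 mM Tris-Cl pH 7.4, 0.01% Tween20. The fluorescein conjugate was also competed with nutlin-3a.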

MDM2, sequence (Q00987 whole entry): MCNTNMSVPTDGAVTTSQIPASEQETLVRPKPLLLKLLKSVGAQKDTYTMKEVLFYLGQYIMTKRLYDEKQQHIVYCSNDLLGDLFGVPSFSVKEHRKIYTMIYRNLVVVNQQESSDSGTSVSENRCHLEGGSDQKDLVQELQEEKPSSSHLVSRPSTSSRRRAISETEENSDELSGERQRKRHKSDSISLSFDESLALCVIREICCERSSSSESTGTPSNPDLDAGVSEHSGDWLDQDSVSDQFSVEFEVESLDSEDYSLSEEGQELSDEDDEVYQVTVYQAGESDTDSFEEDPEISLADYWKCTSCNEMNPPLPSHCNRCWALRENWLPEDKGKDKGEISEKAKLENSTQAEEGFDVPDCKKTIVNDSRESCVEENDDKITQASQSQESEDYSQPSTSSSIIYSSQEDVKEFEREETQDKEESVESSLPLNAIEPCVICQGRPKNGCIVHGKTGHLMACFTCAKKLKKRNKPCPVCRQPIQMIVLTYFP

fraction of fluorescent probe displaced | Structure (SMILES)
0.015 | O=C(/C=C/c1ccc(OCc2ccccc2)cc1)NC[C@@H]1NC(=O)[C@H]2CCCN(C2)C(=O)CCSSCCNC(=O)[C@H](Cc2c[nH]c3ccccc23)NC1=O [X-Nip-Dap-Trp + Acid 110]
0.574 | O=C(/C=C/c1ccc2ccccc2c1)NC[C@@H]1NC(=O)[C@H]2CCCN(C2)C(=O)CCSSCCNC(=O)[C@H](Cc2c[nH]c3ccccc23)NC1=O [X-Nip-Dap-Trp + Acid 112]
-0.012 | O=C(CCS(=O)(=O)c1ccccc1)NC[C@@H]1NC(=O)[C@H]2CCCN(C2)C(=O)CCSSCCNC(=O)[C@H](Cc2c[nH]c3ccccc23)NC1=O [X-Nip-Dap-Trp + Acid 114]
0.055 | O=C(/C=C/c1ccc2ccccc2c1)NCCN1CC(=O)N[C@H](Cc2c[nH]c3ccccc23)C(=O)NCCSSCCC(=O)N2CCC[C@@H](C2)C1=O [X-Nip-N-Aeg-D-Trp + Acid 112]

Continued, compound first:

Structure (SMILES) | fraction of fluorescent probe displaced
O=C(/C=C/c1ccc(Cl)cc1)NCCN1CC(=O)N[C@@H](Cc2cccc3ccccc23)C(=O)NCCSSCCC(=O)N2CCC[C@@H](C2)C1=O [X-Nip-N-Aeg-1-NaI + Acid 108] | 0.021
O=C(/C=C/c1ccc(OCc2ccccc2)cc1)NCCN1CC(=O)N[C@@H](Cc2cccc3ccccc23)C(=O)NCCSSCCC(=O)N2CCC[C@@H](C2)C1=O [X-Nip-N-Aeg-1-NaI + Acid 110] | -0.00533
O=C1CN(CCNC(=O)c2cccc(Oc3ccccc3)c2)C(=O)[C@H]2CCCN(C2)C(=O)CCSSCCNC(=O)[C@H](Cc2cccc3ccccc23)N1 [X-Nip-N-Aeg-1-NaI + Acid 111] | 0.035
O=C(/C=C/c1ccc2ccccc2c1)NCCN1CC(=O)N[C@@H](Cc2cccc3ccccc23)C(=O)NCCSSCCC(=O)N2CCC[C@@H](C2)C1=O [X-Nip-N-Aeg-1-NaI + Acid 112] | 0.015
O=C(CCS(=O)(=O)c1ccccc1)NCCN1CC(=O)N[C@@H](Cc2cccc3ccccc23)C(=O)NCCSSCCC(=O)N2CCC[C@@H](C2)C1=O [X-Nip-N-Aeg-1-NaI + Acid 114] | 0.008
O=C1CN(CCNC(=O)c2ccc(Cl)cc2)C(=O)[C@H]2CCCN(C2)C(=O)CCSSCCNC(=O)[C@H](Cc2ccc3ccccc3c2)N1 [X-Nip-N-Aeg-2-Nal + Acid 25] | 0.00133
O=C1CN(CCNC(=O)c2ccc3ccccc3c2)C(=O)[C@H]2CCCN(C2)C(=O)CCSSCCNC(=O)[C@H](Cc2ccc3ccccc3c2)N1 [X-Nip-N-Aeg-2-Nal + Acid 107] | 0.011
O=C(/C=C/c1ccc(OCc2ccccc2)cc1)NCCN1CC(=O)N[C@@H](Cc2ccc3ccccc3c2)C(=O)NCCSSCCC(=O)N2CCC[C@@H](C2)C1=O [X-Nip-N-Aeg-2-Nal + Acid 110] | 0.035
O=C1CN(CCNC(=O)c2cccc(Oc3ccccc3)c2)C(=O)[C@H]2CCCN(C2)C(=O)CCSSCCNC(=O)[C@H](Cc2ccc3ccccc3c2)N1 [X-Nip-N-Aeg-2-Nal + Acid 111] | 0.00133
CC(Oc1cccc(Cl)c1)C(=O)NCCN1CC(=O)N[C@@H](Cc2ccc3ccccc3c2)C(=O)NCCSSCCC(=O)N2CCC[C@@H](C2)C1=O (stereo partly shown) [X-Nip-N-Aeg-2-Nal + Acid 113] | 0.00133
O=C(CCS(=O)(=O)c1ccccc1)NCCN1CC(=O)N[C@@H](Cc2ccc3ccccc3c2)C(=O)NCCSSCCC(=O)N2CCC[C@@H](C2)C1=O [X-Nip-N-Aeg-2-Nal + Acid 114] | 0.015
O=C1CN(CCNC(=O)c2cccc(Oc3ccccc3)c2)C(=O)[C@H]2CCCN(C2)C(=O)CCSSCCNC(=O)[C@H](Cc2c[nH]c3cc(Cl)ccc23)N1 [X-Nip-N-Aeg-Cl-Trp + Acid 111] | -0.00533
O=C(/C=C/c1ccc2ccccc2c1)NCCN1CC(=O)N[C@@H](Cc2c[nH]c3cc(Cl)ccc23)C(=O)NCCSSCCC(=O)N2CCC[C@@H](C2)C1=O [X-Nip-N-Aeg-Cl-Trp + Acid 112] | 0.00133
CC(Oc1cccc(Cl)c1)C(=O)NCCN1CC(=O)N[C@@H](Cc2c[nH]c3cc(Cl)ccc23)C(=O)NCCSSCCC(=O)N2CCC[C@@H](C2)C1=O (stereo partly shown) [X-Nip-N-Aeg-Cl-Trp + Acid 113] | -0.019
Cn1cc(C[C@@H]2NC(=O)CN(CCNC(=O)c3ccc(Cl)s3)C(=O)[C@H]3CCCN(C3)C(=O)CCSSCCNC2=O)c2ccccc21 [X-Nip-N-Aeg-Me-Trp + Acid 14] | -0.012
Cn1cc(C[C@@H]2NC(=O)CN(CCNC(=O)c3ccc4ccccc4c3)C(=O)[C@H]3CCCN(C3)C(=O)CCSSCCNC2=O)c2ccccc21 [X-Nip-N-Aeg-Me-Trp + Acid 107] | 0.011
Cn1cc(C[C@@H]2NC(=O)CN(CCNC(=O)/C=C/c3ccc(OCc4ccccc4)cc3)C(=O)[C@H]3CCCN(C3)C(=O)CCSSCCNC2=O)c2ccccc21 [X-Nip-N-Aeg-Me-Trp + Acid 110] | 0.00133
CC(Oc1cccc(Cl)c1)C(=O)NCCN1CC(=O)N[C@@H](Cc2cn(C)c3ccccc23)C(=O)NCCSSCCC(=O)N2CCC[C@@H](C2)C1=O (stereo partly shown) [X-Nip-N-Aeg-Me-Trp + Acid 113] | 0.008
Cn1cc(C[C@@H]2NC(=O)CN(CCNC(=O)CCS(=O)(=O)c3ccccc3)C(=O)[C@H]3CCCN(C3)C(=O)CCSSCCNC2=O)c2ccccc21 [X-Nip-N-Aeg-Me-Trp + Acid 114] | 0.00133
CN1C(=O)CN(CCNC(=O)c2ccc(Cl)s2)C(=O)[C@H]2CCCN(C2)C(=O)CCSSCCNC(=O)[C@@H]1Cc1c[nH]c2ccccc12 [X-Nip-N-Aeg-NMe-Trp + Acid 14] | 0.00133
CN1C(=O)CN(CCNC(=O)/C=C/c2ccc(Cl)cc2)C(=O)[C@H]2CCCN(C2)C(=O)CCSSCCNC(=O)[C@@H]1Cc1c[nH]c2ccccc12 [X-Nip-N-Aeg-NMe-Trp + Acid 108] | 0.028
CN1C(=O)CN(CCNC(=O)c2cccc(Oc3ccccc3)c2)C(=O)[C@H]2CCCN(C2)C(=O)CCSSCCNC(=O)[C@@H]1Cc1c[nH]c2ccccc12 [X-Nip-N-Aeg-NMe-Trp + Acid 111] | -0.012
CN1C(=O)CN(CCNC(=O)CCS(=O)(=O)c2ccccc2)C(=O)[C@H]2CCCN(C2)C(=O)CCSSCCNC(=O)[C@@H]1Cc1c[nH]c2ccccc12 [X-Nip-N-Aeg-NMe-Trp + Acid 114] | -0.00533
O=C1CN(CCNC(=O)c2ccc(Cl)s2)C(=O)[C@H]2CCCN(C2)C(=O)CCSSCCNC(=O)[C@H](Cc2c[nH]c3ccccc23)N1 [X-Nip-N-Aeg-Trp + Acid 14] | -0.00533
O=C1CN(CCNC(=O)c2cccc(Oc3ccccc3)c2)C(=O)[C@H]2CCCN(C2)C(=O)CCSSCCNC(=O)[C@H](Cc2c[nH]c3ccccc23)N1 [X-Nip-N-Aeg-Trp + Acid 111] | 0.015
O=C(CCS(=O)(=O)c1ccccc1)NCCN1CC(=O)N[C@@H](Cc2c[nH]c3ccccc23)C(=O)NCCSSCCC(=O)N2CCC[C@@H](C2)C1=O [X-Nip-N-Aeg-Trp + Acid 114] | 0.035
O=C1CN(CCNC(=O)C2COc3ccccc3O2)C(=O)[C@H]2CCCN(C2)C(=O)CCSSCCNC(=O)[C@H](Cc2c[nH]c3ccccc23)N1 (stereo partly shown) [X-Nip-N-Aeg-Trp + Acid 115] | 0.021

Same assay, conditions: Panel c, Library 4: best nine scaffolds and 15 additional carboxylic acids; displacement of fluorescent probe

fraction of fluorescent probe displaced | Structure (SMILES)
0.443 | O=C(/C=C/c1ccc(F)cc1)NC[C@@H]1NC(=O)[C@H]2CCCN(C2)C(=O)CCSSCCNC(=O)[C@H](Cc2c[nH]c3ccccc23)NC1=O [X-Nip-Dap-Trp + Acid 116]
0.533 | CCOc1ccc(/C=C/C(=O)NC[C@@H]2NC(=O)[C@H]3CCCN(C3)C(=O)CCSSCCNC(=O)[C@H](Cc3c[nH]c4ccccc34)NC2=O)cc1 [X-Nip-Dap-Trp + Acid 117]
0.435 | CCCOc1ccc(/C=C/C(=O)NC[C@@H]2NC(=O)[C@H]3CCCN(C3)C(=O)CCSSCCNC(=O)[C@H](Cc3c[nH]c4ccccc34)NC2=O)cc1 [X-Nip-Dap-Trp + Acid 118]
0.435 | O=C(/C=C/c1ccc(Cl)c(Cl)c1)NC[C@@H]1NC(=O)[C@H]2CCCN(C2)C(=O)CCSSCCNC(=O)[C@H](Cc2c[nH]c3ccccc23)NC1=O [X-Nip-Dap-Trp + Acid 119]
0.468 | O=C(/C=C/c1cccc(Cl)c1)NC[C@@H]1NC(=O)[C@H]2CCCN(C2)C(=O)CCSSCCNC(=O)[C@H](Cc2c[nH]c3ccccc23)NC1=O [X-Nip-Dap-Trp + Acid 121]
0.395 | O=C(/C=C/c1cccc(C(F)(F)F)c1)NC[C@@H]1NC(=O)[C@H]2CCCN(C2)C(=O)CCSSCCNC(=O)[C@H](Cc2c[nH]c3ccccc23)NC1=O [X-Nip-Dap-Trp + Acid 122]
0.044 | CC(=Cc1ccccc1)C(=O)NCC1NC(=O)C2CCCN(C2)C(=O)CCSSCCNC(=O)C(Cc2c[nH]c3ccccc23)NC1=O (stereo not drawn) [X-Nip-Dap-Trp + Acid 123]
0.313 | CC(C)c1ccc(C=CC(=O)NCC2NC(=O)C3CCCN(C3)C(=O)CCSSCCNC(=O)C(Cc3c[nH]c4ccccc34)NC2=O)cc1 (stereo not drawn) [X-Nip-Dap-Trp + Acid 127]
0.036 | O=C(NC[C@@H]1NC(=O)[C@H]2CCCN(C2)C(=O)CCSSCCNC(=O)[C@H](Cc2c[nH]c3ccccc23)NC1=O)c1cnc2ccccc2n1 [X-Nip-Dap-Trp + Acid 130]

Source: publication PMC9250534, “Synthesis and direct assay of large macrocycle diversities by combinatorial late-stage modification at picomole scale” (Nature Communications, 2022)
